Active and inactive are the calls of the source. The rule behind the calls is not given here.
Assays:
[1] = system: NCI-H460; assay: Induction of apoptosis in human H460 cells under detachment conditions assessed as late apoptotic cells at 0.5 uM after 24 hrs by Annexin V-FITC/propidium iodide staining-based flow cytometric analysis (reference value: 15.44%); format: functional
[2] = system: NCI-H460; assay: Antiproliferative activity against human H460 cells assessed as reduction in cell viability at 0.05 to 0.5 uM after 24 hrs by MTT assay; format: functional, cell-based
[3] = system: NCI-H460; assay: Antiproliferative activity against human H460 cells under detachment conditions assessed as reduction in cell viability at 0.05 uM after 6 hrs by XTT assay; format: functional, cell-based
[4] = system: NCI-H460; assay: Inhibition of epithelial-mesenchymal transition in human H460 cells under detachment conditions assessed as increase in claudin-1 protein level 0.05 to 0.5 uM after 12 hrs by Western blot analysis; format: functional, cell-based
[5] = system: NCI-H460; assay: Induction of apoptosis in human H460 cells under detachment conditions assessed as accumulation of necrotic cells at 0.05 to 0.5 uM after 24 hrs by Hoechst 33342/propidium iodide staining based fluorescent microscopic method; format: functional, cell-based
[6] = system: NCI-H460; assay: Effect on total AKT protein level in human H460 cells under detachment conditions at 0.05 to 0.5 uM after 12 hrs by Western blot analysis; format: ADME, cell-based; settings: nci-h460, 12 h
[7] = system: NCI-H460; assay: Induction of apoptosis in human H460 cells under detachment conditions assessed as early apoptotic cells at 0.5 uM after 24 hrs by Annexin V-FITC/propidium iodide staining-based flow cytometric analysis (reference value: 22.55%); format: functional
[8] = system: NCI-H23; assay: Induction of apoptosis in human H23 cells under detachment conditions assessed as necrotic cells at 0.5 uM after 24 hrs by Annexin V-FITC/propidium iodide staining-based flow cytometric analysis (reference value: 0.41%); format: functional
[9] = system: NCI-H23; assay: Inhibition of epithelial-mesenchymal transition in human H23 cells harboring with p53 mutant under detachment conditions assessed as decrease in snail protein level 0.05 to 0.5 uM after 12 hrs by Western blot analysis; format: functional, cell-based
[10] = system: NCI-H23; assay: Induction of anoikis in human H23 cells under detachment conditions assessed as reduction in cell viability at 0.05 uM up to 24 hrs by XTT assay; format: functional, cell-based
[11] = system: NCI-H460; assay: Inhibition of epithelial-mesenchymal transition in human H460 cells under detachment conditions assessed as decrease in snail protein level 0.05 to 0.5 uM after 12 hrs by Western blot analysis; format: functional, cell-based
[12] = organism: Homo sapiens; assay: Inhibition of ERK phosphorylation in human H460 cells under detachment conditions at 0.05 to 0.5 uM after 12 hrs by Western blot analysis; format: cell-based
[13] = system: NCI-H460; assay: Down regulation of caveolin-1 human H460 cells under detachment conditions at 0.05 to 0.5 uM after 12 hrs by Western blot analysis; format: functional, cell-based
[14] = system: NCI-H460; assay: Induction of apoptosis in human H460 cells at 0.05 to 0.5 uM after 24 hrs by Hoechst 33342/propidium iodide staining based fluorescent microscopic method; format: functional, cell-based
[15] = system: NCI-H23; assay: Induction of apoptosis in human H23 cells under detachment conditions assessed as late apoptotic cells at 0.5 uM after 24 hrs by Annexin V-FITC/propidium iodide staining-based flow cytometric analysis (reference value: 2.82%); format: functional
[16] = system: NCI-H460; assay: Induction of anoikis in human H460 cells under detachment conditions assessed as increase in Bax level at 0.05 to 0.5 uM after 12 hrs by Western blot analysis; format: functional, cell-based
[17] = system: NCI-H23; assay: Induction of anoikis in human H23 cells harboring with p53 mutant under detachment conditions assessed as effect on P53 level at 0.05 to 0.5 uM after 12 hrs by Western blot analysis; format: functional, cell-based
[18] = system: NCI-H23; assay: Inhibition of epithelial-mesenchymal transition in human H23 cells harboring with p53 mutant under detachment conditions assessed as increase in claudin-1 protein level 0.05 to 0.5 uM after 12 hrs by Western blot analysis; format: functional, cell-based
[19] = molecular target: T1, Serine/threonine-protein kinase AKT (Homo sapiens) (UniProt P31751+Q9Y243+P31749); assay: Inhibition of AKT phosphorylation in human H23 cells harboring with p53 mutant under detachment conditions at 0.05 to 0.5 uM after 12 hrs by Western blot analysis; format: cell-based
T1 sequence (P31749 whole entry, looked up): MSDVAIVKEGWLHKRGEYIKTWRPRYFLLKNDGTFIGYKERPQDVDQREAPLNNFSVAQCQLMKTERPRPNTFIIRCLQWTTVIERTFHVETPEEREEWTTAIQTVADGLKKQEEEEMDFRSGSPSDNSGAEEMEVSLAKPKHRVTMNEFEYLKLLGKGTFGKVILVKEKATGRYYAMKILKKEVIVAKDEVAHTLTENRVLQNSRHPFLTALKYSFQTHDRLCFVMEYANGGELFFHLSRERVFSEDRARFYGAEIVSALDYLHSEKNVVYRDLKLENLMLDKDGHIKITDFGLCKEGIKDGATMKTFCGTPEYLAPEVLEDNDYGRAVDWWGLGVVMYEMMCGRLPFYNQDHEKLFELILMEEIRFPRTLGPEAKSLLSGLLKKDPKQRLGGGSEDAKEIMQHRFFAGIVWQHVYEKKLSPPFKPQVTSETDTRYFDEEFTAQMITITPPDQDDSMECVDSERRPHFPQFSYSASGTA
T1 sequence (P31751 whole entry, looked up): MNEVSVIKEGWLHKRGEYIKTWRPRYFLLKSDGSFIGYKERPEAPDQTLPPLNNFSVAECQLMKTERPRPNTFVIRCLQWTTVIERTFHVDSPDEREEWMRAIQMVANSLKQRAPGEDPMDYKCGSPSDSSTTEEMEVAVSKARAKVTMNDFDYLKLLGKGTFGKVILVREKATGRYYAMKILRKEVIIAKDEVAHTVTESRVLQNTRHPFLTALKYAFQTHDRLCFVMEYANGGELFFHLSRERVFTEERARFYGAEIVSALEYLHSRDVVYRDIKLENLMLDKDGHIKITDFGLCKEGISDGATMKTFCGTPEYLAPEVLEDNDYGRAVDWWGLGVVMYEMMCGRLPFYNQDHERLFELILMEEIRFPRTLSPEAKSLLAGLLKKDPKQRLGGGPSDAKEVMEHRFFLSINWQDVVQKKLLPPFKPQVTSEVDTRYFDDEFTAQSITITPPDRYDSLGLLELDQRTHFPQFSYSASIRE
T1 sequence (Q9Y243 whole entry, looked up): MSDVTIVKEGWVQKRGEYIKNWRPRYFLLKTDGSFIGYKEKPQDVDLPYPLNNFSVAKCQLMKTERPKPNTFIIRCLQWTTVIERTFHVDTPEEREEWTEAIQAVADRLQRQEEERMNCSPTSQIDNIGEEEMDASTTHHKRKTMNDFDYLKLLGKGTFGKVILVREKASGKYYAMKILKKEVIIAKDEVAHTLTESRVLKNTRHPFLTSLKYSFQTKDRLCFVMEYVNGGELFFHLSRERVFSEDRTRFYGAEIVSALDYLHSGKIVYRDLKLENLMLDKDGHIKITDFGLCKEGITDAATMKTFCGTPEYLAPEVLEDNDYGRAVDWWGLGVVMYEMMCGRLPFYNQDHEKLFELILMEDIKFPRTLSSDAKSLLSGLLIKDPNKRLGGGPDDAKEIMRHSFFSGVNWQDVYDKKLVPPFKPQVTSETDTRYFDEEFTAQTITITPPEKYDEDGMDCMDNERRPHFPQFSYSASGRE

[20] = system: NCI-H292; assay: Induction of apoptosis in human NCI-H292 cells under detachment conditions assessed as necrotic cells at 0.5 uM after 24 hrs by Annexin V-FITC/propidium iodide staining-based flow cytometric analysis (reference value: 1.28%); format: functional
[21] = system: NCI-H460; assay: Antiproliferative activity against human H460 cells assessed as reduction in cell viability at 0.1 to 0.5 uM after at 72 hrs by crystal violet staining assay; format: functional, cell-based
[22] = system: NCI-H23; assay: Induction of anoikis in human H23 cells harboring with p53 mutant under detachment conditions assessed as decrease in MCL-1 level at 0.05 to 0.5 uM after 12 hrs by Western blot analysis; format: functional, cell-based
[23] = system: NCI-H460; assay: Induction of apoptosis in human H460 cells under detachment conditions assessed as viable cells at 0.5 uM after 24 hrs by Annexin V-FITC/propidium iodide staining-based flow cytometric analysis (reference value: 60.43%); format: functional
[24] = system: NCI-H23; assay: Inhibition of epithelial-mesenchymal transition in human H23 cells harboring with p53 mutant under detachment conditions assessed as decrease in vimentin protein level 0.05 to 0.5 uM after 12 hrs by Western blot analysis; format: functional, cell-based
[25] = system: NCI-H292; assay: Inhibition of colony formation in human NCI-H292 cells under detachment conditions assessed as reduction in number of colonies at 0.1 to 0.5 uM after 14 days by microscopic method; format: functional, cell-based
[26] = system: NCI-H23; assay: Inhibition of colony formation in human H23 cells under detachment conditions assessed as reduction in size of colonies at 0.1 to 0.5 uM after 14 days by microscopic method; format: functional, cell-based
[27] = system: NCI-H292; assay: Antiproliferative activity against human NCI-H292 cells under detachment conditions assessed as reduction in cell viability at 0.05 to 0.5 uM up to 24 hrs by XTT assay; format: functional, cell-based
[28] = system: NCI-H23; assay: Inhibition of epithelial-mesenchymal transition in human H23 cells harboring with p53 mutant under detachment conditions assessed as increase in E-cadherin protein level 0.05 to 0.5 uM after 12 hrs by Western blot analysis; format: functional, cell-based
[29] = system: NCI-H460; assay: Induction of apoptosis in human H460 cells under detachment conditions at 0.05 to 0.5 uM after 24 hrs by Hoechst 33342/propidium iodide staining based fluorescent microscopic method; format: functional, cell-based
[30] = molecular target: T1, Serine/threonine-protein kinase AKT (Homo sapiens); assay: Inhibition of AKT phosphorylation in human H460 cells under detachment conditions at 0.05 to 0.5 uM after 12 hrs by Western blot analysis; format: cell-based

COC1=C(C)C(=O)C2=C(C1=O)[C@@H]1[C@@H]3CC4=C(C(=O)C(OC)=C(C)C4=O)[C@H](CO)N3[C@@H](C#N)[C@H](C2)N1C [JOURNNAMYCIN A]
Activity [1]: 48.01% | Activity [2]: inactive | Activity [3]: Active | inhibition [4]: Active | Activity [5]: inactive | Activity [6]: Non-Toxic | Activity [7]: 26.4% | Activity [8]: 0.49% | inhibition [9]: Active | Activity [10]: Active | inhibition [11]: Active | inhibition [12]: Active | Activity [13]: Active | Activity [14]: inactive | Activity [15]: 17.1% | Activity [16]: Active | Activity [17]: inactive | inhibition [18]: Active | inhibition [19]: Active | Activity [20]: 0.4% | Activity [21]: Active | Activity [22]: Active | fold change (FC) [23]: 2 | inhibition [24]: Active | inhibition [25]: Active | inhibition [26]: Active | Activity [27]: Active | inhibition [28]: Active | Activity [29]: Active | inhibition [30]: Active

— ChEMBL document CHEMBL4334449, “Jorunnamycin A from Xestospongia sp. Suppresses Epithelial to Mesenchymal Transition and Sensitizes Anoikis in Human Lung Cancer Cells” (J Nat Prod, 2019)
